Test system: male C57Bl/6 or male ob/ob mice
Assay: Oral glucose tolerance test in mice
Format: in vivo
Settings: dose of 30 mg kg^−1, oral
Procedure: The effects of compounds of the invention on oral glucose (Glc) tolerance were evaluated in male C57Bl/6 or male ob/ob mice. Food was withdrawn 5 h before administration of Glc and remained withdrawn throughout the study. Mice had free access to water during the study. A cut was made to the animals' tails, then blood (20 μL) was removed for measurement of basal Glc levels 45 min before administration of the Glc load. Then, the mice were weighed and dosed orally with test compound or vehicle (20% aqueous hydroxypropyl-β-cyclodextrin or 25% aqueous Gelucire 44/14) 30 min before the removal of an additional blood sample (20 μL) and treatment with the Glc load (2-5 g kg^−1 p.o.). Blood samples (20 μL) were then taken 25, 50, 80, 120, and 180 min after Glc administration. The 20 μL blood samples for measurement of Glc levels were taken from the cut tip of the tail into disposable micro-pipettes (Dade Diagnostics Inc., Puerto Rico) and the sample added to 480 μL of haemolysis reagent. Duplicate 20 μL aliquots of the diluted haemolysed blood were then added to 180 μL of Trinders glucose reagent (Sigma enzymatic (Trinder) colorimetric method) in a 96-well assay plate. After mixing, the samples were left at room temperature for 30 min before being read against Glc standards (Sigma glucose/urea nitrogen combined standard set).

CC(C)OC(=O)N1CCC(O[C@H](C)c2nc(-c3cnc(N4C[C@H](c5cc(F)ccc5F)[C@@H](N)C4)nc3)no2)CC1.Cc1ccc(S(=O)(=O)O)cc1 [Example 18, 4-[(R)-1-(3-{2-[(3R,4S)-3-Amino-4-(2,5-difluorophenyl)pyrrolidin-1-yl]pyrimidin-5-yl}-[1,2,4]oxadiazol-5-yl)ethoxy]piperidine-1-carboxylic acid isopropyl ester p-toluenesulfonic acid salt]
reduction in the Glc excursion: > 40%

— US20120040953A1, “Compounds for the Treatment of Metabolic Disorders” (PROSIDION LIMITED, priority 2009, published 2012)
